Measurements published in US6255317A, “Cholesterol biosynthesis inhibitors” (Hanwha Chemical Corporation, priority 1998, dated 2001).
Like-named read-outs stand apart in the source and are kept apart here.

Legend:
sterol 14-reductase = target: T1, sterol 14-reductase (Rattus norvegicus, UniProt A0ACM8Q6X4); assay: Sterol 14-reductase assay with rat liver microsomes (substrate 4,4-dimethyl-5α-cholesta-7,14-dien-3β-ol, GLC); assay type: biochemical, Sprague-Dawley rats
T1 construct: to give a microsome which was used as an enzyme source of sterol 14-reductase; from tissue
T1 sequence (A0ACM8Q6X4 1-418): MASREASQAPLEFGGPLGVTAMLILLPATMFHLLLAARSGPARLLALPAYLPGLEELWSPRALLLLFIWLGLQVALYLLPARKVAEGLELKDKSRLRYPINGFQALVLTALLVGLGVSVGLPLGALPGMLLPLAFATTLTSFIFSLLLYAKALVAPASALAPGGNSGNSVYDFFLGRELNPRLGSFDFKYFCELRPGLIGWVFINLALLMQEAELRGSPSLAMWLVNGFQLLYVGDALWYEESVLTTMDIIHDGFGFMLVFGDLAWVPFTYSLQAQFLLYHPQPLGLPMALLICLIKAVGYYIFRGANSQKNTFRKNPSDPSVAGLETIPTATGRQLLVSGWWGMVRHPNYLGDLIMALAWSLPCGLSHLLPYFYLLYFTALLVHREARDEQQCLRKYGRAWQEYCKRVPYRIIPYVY
Description: First, a screening system for sterol 14-reductase was constructed in which 4,4-dimethyl-5α-cholesta-7,14-dien-3β-ol is used as a substrate and then, the effect on the activity of sterol 14-reductase was investigated in the screening system.
The animals were fasted for 12 hours before excising liver tissues and then sacrificed by decapitation at midnight. An aqueous solution containing 0.25M of sucrose was injected into the hepatic portal vein to remove all the blood within the liver, and then, the liver was excised. The liver was homogenated with two volummes of buffer solution 1 (0.1 M potassium phosphate , 1 mM reduced glutathione, 0.5 mM EDTA, 20% (v/v) glycerol, pH 7.4) by repeating pestles over 10 times and then, centrifuged with 900×g for 5 minutes to give a supernatant. The supernatant was centrifuged with 12,000×g for 20 minutes. The supernatant obtained was ultracentrifuged with 105,000×g for 90 minutes to give a microsome which was used as an enzyme source of sterol 14-reductase. Assay against sterol 14-reductase was carried out as follows: 60 nmol of 4,4-dimethyl-5α-cholesta-7,14-dien-3β-ol and the extract from Corydalis Turtschaninowii Besser dissolved into DMSO were added to an assay mixture (total volume 1.0 ml) containing 2 mg of microsomal protein, 2 mM of NADPH and 25 mg of glucose plus 20 units of glucose oxidase with preincubations under nitrogen at 37° C. for 4 min unless otherwise specified to establish anaerobic condition. Buffer A (0.1M potassium phosphate buffer, pH 7.4, including 1 mM reduced glutathione, 0.5 mM EDTA, and 20% (v/v) glycerol) used for incubation had been equilibrated with nitrogen, and nitrogen was exchanged for air in all sealed reaction flasks prior to the start of incubations. Incubation of the complete mixture was carried out anaerobically in sealed flasks for 10 min at 37° C. unless otherwise indicated. Incubations were terminated by the addition of 1 ml of ethanolic KOH followed by heating under reflux for 10 min. Sterols were extracted four times with 4 ml of petroleum ether, and the solvent was evaporated to dryness under a nitrogen stream. The resulting residue was dissolved in 200-500 μl of n-hexane for quantification by GLC at high sensitive attenuation. The activity of sterol 14-reductase was determined with the amount of the substrate wherein the double bonds of 14-carbon were reduced (for the amount reduced by 1 mg of the microsome protein for 1 minute).

[1] = tested on: human liver HepG2 cell line; assay: Cholesterol biosynthesis in cultured human liver cell line HepG2 ([1,2-14C]acetate); assay type: cell-based; conditions: compared with AY9944, comparative drug
Description: Cultured human liver HepG2 cell line was grown on RPMI (Rosewell park Memorial Institute) 1640 culture medium containing 10% […] until 60% of monolayer are formed in a 60 mm culture dish. After replacing the medium with 3 ml of a fresh culture medium containing 10%(v/v) LPDS (Fetal calf lipoprotein-deficient serum), the cells were further grown for 48 hours until 90% of cultivation degree appear. The culture medium was removed and the cell was then washed with PBS. 2 ml of culture medium containing compound no. 8 (final concentration 100 μM) and AY-9944 (final concentration 1 μM) were added thereto. Then, the medium was cultivated at 37° C. for 1 hour under the condition of 95% air/5% carbonic acid gas. AY-9944 which is an inhibitor for sterol 7-reductase was used as a control drug for assuring the present experimental procedure on the inhibition of cholesterol biosynthesis. Thereafter, 3 μCi of [1 ,2-^14 C]acetate (72 mCi/mmol) were added thereto. The cultivation was continued for 2 hours so that the isotope is introduced into the cell and used as a precursor for sterol to be synthesized. Then, the culture medium was completely removed and washed with PBS twice and the cells were collected by scratching. 10 μg of cholesterol, 10 μg of lanosterol and [^3 H]cholesterol (30,000 dpm) were added thereto, and saponification reaction was carried out at 70° C. for an hour by adding 7.5% of methanolic KOH solution. Unsaponified sterol was removed by extracting them three times with 3 ml of petroleum ether and dried with nitrogen purging. The dried samples were redissolved in 200 μl of chloroform. An aliquot of the samples was loaded onto Silicagel 60F thin layer plate and then separated using ethyl acetate/hexane 25/75 (v/v) as the developing solvent. The thin layer film was developed by exposure to Amersham Hyperfilm at -70° C. for 7 days. Cholesterol band were confirmed by comparing the band appeared in the film and that appeared in the iodine-stained thin layer. After scratching the cholesterol band, it was quantified by a liquid scintillation counter.

Syrian Golden Hamster = assay: In vivo effect on plasma lipids and glucose in Syrian Golden Hamster; conditions: for total cholesterol, LDL-cholesterol, and triglyceride levels (in words): Syrian Golden Hamster, compared with lovastatin; for Glucose, percent change in parentheses / HDL cholesterol, percent change in parentheses / LDL cholesterol, percent change in parentheses / Total cholesterol, percent change in parentheses / Trigly-ceride, percent change in parentheses: against normal diet control, 6.0 mg/kg/day; for Glucose / HDL cholesterol / LDL cholesterol / Total cholesterol / Trigly-ceride: normal diet + 6.0 mg/kg/day, oral, 14 days; for Glucose: hamster; for HDL cholesterol / LDL cholesterol / Total cholesterol / Trigly-ceride: hamster plasma
Description: In order to investigate the effect of the compound of formula (1) of the invention, the compound was orally administered into male Syrian Golden Hamsters having weights of 90~110 g and then blood was taken from each animal. Plasma lipids, i.e., total cholesterol, LDL-cholesterol, HDL-cholesterol and triglycerides were analyzed using an automatic analyzer (Automatic analyzer model Hitachi 7150).
Male Syrian Golden Hamsters weighing 90~110 g distributed from Samyuk Animal Laboratory, Seoul, Korea were bred under the following conditions: They were maintained under reverse light cycle (light cycle: from 6 P.M to 6 A.M; dark cycle: from 6 A.M. to 6 P.M.). The food and water were supplied at 10 A.M. The commercially available standard rodent chows were used. The hamsters were divided into 6 or 7 animals per group. The animals were fasted for 12 hours before administrating the drug. Then, dehydrocoridaline derivatives dissolved in a 0.25% methyl cellulose solution was administered orally for 14 days at the indicated time per a day. After fasting animals for 24 hours from the last administration, blood was extracted using a cardiac puncture and plasma was then isolated. Plasma lipids, i.e., total cholesterol, LDL-cholesterol, HDL-cholesterol and triglyceride values were analyzed using Automatic Analyzer (Hitachi 7150).

SD rats = assay: Acute oral toxicity in SD rats; assay type: in vivo; conditions: for general symptoms, weight change and lethal case over two weeks: rat, in vivo
Description: (§1) Meanwhile, the toxicity of the compounds of the present invention was mvestigated as follows: i.e., the compounds were suspended into propylene glycol and then orally administered into each of 5 male and female SD rats at the age of 5-weeks that were fasted for 12 hours. Under the usual breeding conditions, general symptoms, weight change and lethal case of the above rats were monitored for two weeks. At the dose over 2,000 mg/kg of the compound nos. […] Rats were safe against the dose of 700 mg/kg of compound no. 8.

[2] = Acute oral toxicity in SD rats; assay type: in vivo; conditions: rat, in vivo, po, rats
Description: as §1

[3] = read-out: Enzyme Activity (relative in vitro activity for sterol 14-reductase, IC50 class)

Row | Compound | IC50 (sterol 14-reductase; [3]) [µM] | cholesterol biosynthesis in human HepG2 cell line (in words) [1] | total cholesterol, LDL-cholesterol, and triglyceride levels (in words) (Syrian Golden Hamster) | Glucose, percent change in parentheses (Syrian Golden Hamster) | HDL cholesterol, percent change in parentheses (Syrian Golden Hamster) | LDL cholesterol, percent change in parentheses (Syrian Golden Hamster) [%] | Total cholesterol, percent change in parentheses (Syrian Golden Hamster) [%] | Trigly-ceride, percent change in parentheses (Syrian Golden Hamster) [%] | Glucose (Syrian Golden Hamster) [mg/dL] | HDL cholesterol (Syrian Golden Hamster) [mg/dL] | LDL cholesterol (Syrian Golden Hamster) [mg/dL] | Total cholesterol (Syrian Golden Hamster) [mg/dL] | Trigly-ceride (Syrian Golden Hamster) [mg/dL] | general symptoms, weight change and lethal case over two weeks (SD rats) | LD50 at 336 h ([2]; female) [mg/kg] | LD50 at 336 h ([2]; male) [mg/kg] | IC50 (sterol 14-reductase; dissolved in DMSO, read-out: concentration of active ingredient in the assay at which 50% of inhibitory effect was observed (sterol 14-reductase)) [µM] | safety of rats at single oral dose (SD rats; dose of 700 mg/kg, oral, SD rats)
1 | CCOc1cc2c(cc1OCC)-c1c(CC)c3ccc(OCC)c(OCC)c3c[n+]1CC2 [Compound No. 5, 2,3,9,10-Tetraethoxy-13-ethylberberine] | ≤ 1 | markedly inhibited | markedly decreased | -12.4% | -3.2% | -41.2 | -23.5 | -28.5 | 160.2 ± 20.9 | 51.1 ± 3.0 | 24.9 ± 3.0 | 97.0 ± 5.6 | 94.7 ± 11.5 | general symptoms and the body weight change of the animals were normal and the lethal case was not observed | > 5000 | > 5000 |  | 
2 | CCOc1cc2c(cc1OCC)C1=C(CC)c3ccc(OCC)c(OCC)c3CN1CC2 [Compound No. 47, 13-Ethyl-2,3,9,10-tetraethoxydihydroprotoberberine] | ≤ 1 | markedly inhibited |  |  |  |  |  |  |  |  |  |  |  |  |  |  |  | 
3 | CCC1=C2c3cc(OC)c(OC)cc3CCN2C(CC(C)=O)c2c1ccc(OC)c2OC (centres unmarked) [Compound No. 37, 8-Acetonyl-13-ethyldihydropalmatine] | ≤ 1 | markedly inhibited | markedly decreased | -23.0% | +2.0% | -52.1 | -33.5 | -48.1 | 140.4 ± 15 | 54.2 ± 3.0 | 20.2 ± 2.0 | 83.8 ± 5.6 | 68.8 ± 11.5 | general symptoms and the body weight change of the animals were normal and the lethal case was not observed | > 2000 | > 2500 |  | 
4 | CC[C@H](C)C(=O)O[C@H]1C[C@@H](C)C=C2C=C[C@H](C)[C@H](CC[C@@H]3C[C@@H](O)CC(=O)O3)[C@H]21 [lovastatin, reference compound] |  |  |  | +1.0% | -2.6% | -29.1 | -22.7 |  | 184.6 ± 23.2 | 51.4 ± 2.6 | 29.9 ± 1.9 | 97.4 ± 3.4 | 182.6 ± 17.0 |  |  |  |  | 
5 | CCC1=C2c3cc(OC)c(OC)cc3CCN2Cc2c1ccc(OC)c2OC [Compound No. 46, 13-Ethyldihydropalmatine] | ≤ 1 | markedly inhibited | markedly decreased | -12.7% | -6.8% | -50.7 | -34.6 | -35.6 | 158.8 ± 16 | 49.2 ± 2.9 | 20.8 ± 2.3 | 82.4 ± 5.4 | 85.2 ± 11.0 | general symptoms and the body weight change of the animals were normal and the lethal case was not observed | > 3000 | > 3000 |  | 
6 | CCc1c2[n+](cc3c(OC)c(OC)ccc13)CCc1cc(OC)c(OC)cc1-2 [Compound No. 8, 13-Ethylpalmatine] | ≤ 1 | markedly inhibited | markedly decreased | -10.9% | -1.8% | -42.0 | -25.4 | -31.7 | 162.2 ± 11.3 | 47.5 ± 3.0 | 24.5 ± 1.8 | 94.0 ± 6.6 | 90.4 ± 8.9 |  | > 760 | > 925 | 100 to 3000 | safe

The next lines start with results.

Row | IC50 (sterol 14-reductase; [3]) [µM] | Compound | cholesterol biosynthesis in human HepG2 cell line (in words) [1] | total cholesterol, LDL-cholesterol, and triglyceride levels (in words) (Syrian Golden Hamster) | Glucose, percent change in parentheses (Syrian Golden Hamster) | HDL cholesterol, percent change in parentheses (Syrian Golden Hamster) | LDL cholesterol, percent change in parentheses (Syrian Golden Hamster) [%] | Total cholesterol, percent change in parentheses (Syrian Golden Hamster) [%] | Trigly-ceride, percent change in parentheses (Syrian Golden Hamster) [%] | Glucose (Syrian Golden Hamster) [mg/dL] | HDL cholesterol (Syrian Golden Hamster) [mg/dL] | LDL cholesterol (Syrian Golden Hamster) [mg/dL] | Total cholesterol (Syrian Golden Hamster) [mg/dL] | Trigly-ceride (Syrian Golden Hamster) [mg/dL] | general symptoms, weight change and lethal case over two weeks (SD rats) | LD50 at 336 h ([2]; female) [mg/kg] | LD50 at 336 h ([2]; male) [mg/kg] | IC50 (sterol 14-reductase; dissolved in DMSO, read-out: concentration of active ingredient in the assay at which 50% of inhibitory effect was observed (sterol 14-reductase)) [µM] | safety of rats at single oral dose (SD rats; dose of 700 mg/kg, oral, SD rats)
7 | ≤ 1 | CCc1c2[n+](cc3c(OC)c(OC)ccc13)CCc1cc3c(cc1-2)OCO3 [Compound No. 6, 13-Ethylberberine] | markedly inhibited |  |  |  |  |  |  |  |  |  |  |  |  |  |  |  | 
8 | ≥ 100 | CCC1=C2c3cc(OC)c(OC)cc3CCN2C(C2CCCC2=O)c2c1ccc(OC)c2OC (centres unmarked) [Compound No. 42, 8-(cyclopentanon-2-yl)-13-ethyldihydropalmatine] |  |  |  |  |  |  |  |  |  |  |  |  |  |  |  |  | 
9 | ≥ 100 | COc1cc2c(cc1OC)-c1c(CCC3OCCCO3)c3ccc(OC)c(OC)c3c[n+]1CC2 [Compound No. 18, 13-(1,3-dioxane-2-yl)ethylpalmatine] |  |  |  |  |  |  |  |  |  |  |  |  |  |  |  |  | 
10 | ≤ 1 | CCC(=O)CC1c2c(ccc(OC)c2OC)C(CC)=C2c3cc(OC)c(OC)cc3CCN21 (centres unmarked) [Compound No. 38, 8-(butan-2-one-1-yl)-13-ethyldihydropalmatine] | markedly inhibited |  |  |  |  |  |  |  |  |  |  |  |  |  |  |  | 
11 | ≥ 100 | COc1ccc2c(c1OC)C(CC(C)=O)N1CCc3cc4c(cc3C1=C2)OCO4 (centres unmarked) [Compound No. 26, 8-Acetonyldihydroberberine] |  |  |  |  |  |  |  |  |  |  |  |  |  |  |  |  | 
